{"source": "patent EP0057998B1", "about": "“Alicyclic compounds, their production and use” (Takeda Chemical Industries, Ltd., priority 1981, dated 1982)", "key": {"[1]": {"test_system": "Hypertensive Reaction by Angiotensin I", "assay": "Effect against hypertensive activity of angiotensin I in rats after oral administration", "assay_type": "in vivo, Male rats (Sprague-Dawley)", "conditions": "13.8 µM/kg orally, angiotensin I 300 ng/kg i.v., corrected by angiotensin II reaction; for Percent Inhibition (%) against Hypertensive Reaction by Angiotensin I After 20 min.: 20 min after administration; for Percent Inhibition (%) against Hypertensive Reaction by Angiotensin I After 60 min.: 60 min after administration; for Percent Inhibition (%) against Hypertensive Reaction by Angiotensin I After 120 min.: 120 min after administration", "description": "Effect of Present Compounds against Hypertensive Activity of Angiotensin I. Male rats (Sprague-Dawley) weighing 250 g to 350 g which were fed under free access to drinking water and feeds were used as experimental animals. The rats were anesthetized with intraperitoneal administration of pentobarbital sodium (50 mg/kg) on the day before the test day and a polyethylene tube was inserted into each of the femoral artery for measurement of blood pressure and the femoral vein for injection of angiotensin I and II, and then the tubes were fixed. […] Then, 13.8 µM/kg of the compound of this invention was administered orally as an aqueous solution or an aqueous gum arabic suspension, and 20, 60 and 120 minutes after the administration, angiotensin I and II were injected repeatedly to trace hypertensive reactions. In calculating the percent inhibition to the hypertensive activity of angiotensin I, the percent inhibitory value was corrected based on the variation with time in the hypertensive reaction by angiotensin II."}, "[2]": {"target": "Angiotensin I Converting Enzyme (ACE) (Homo sapiens, UniProt P12821)", "sequence (P12821 30-1306, species assumed)": "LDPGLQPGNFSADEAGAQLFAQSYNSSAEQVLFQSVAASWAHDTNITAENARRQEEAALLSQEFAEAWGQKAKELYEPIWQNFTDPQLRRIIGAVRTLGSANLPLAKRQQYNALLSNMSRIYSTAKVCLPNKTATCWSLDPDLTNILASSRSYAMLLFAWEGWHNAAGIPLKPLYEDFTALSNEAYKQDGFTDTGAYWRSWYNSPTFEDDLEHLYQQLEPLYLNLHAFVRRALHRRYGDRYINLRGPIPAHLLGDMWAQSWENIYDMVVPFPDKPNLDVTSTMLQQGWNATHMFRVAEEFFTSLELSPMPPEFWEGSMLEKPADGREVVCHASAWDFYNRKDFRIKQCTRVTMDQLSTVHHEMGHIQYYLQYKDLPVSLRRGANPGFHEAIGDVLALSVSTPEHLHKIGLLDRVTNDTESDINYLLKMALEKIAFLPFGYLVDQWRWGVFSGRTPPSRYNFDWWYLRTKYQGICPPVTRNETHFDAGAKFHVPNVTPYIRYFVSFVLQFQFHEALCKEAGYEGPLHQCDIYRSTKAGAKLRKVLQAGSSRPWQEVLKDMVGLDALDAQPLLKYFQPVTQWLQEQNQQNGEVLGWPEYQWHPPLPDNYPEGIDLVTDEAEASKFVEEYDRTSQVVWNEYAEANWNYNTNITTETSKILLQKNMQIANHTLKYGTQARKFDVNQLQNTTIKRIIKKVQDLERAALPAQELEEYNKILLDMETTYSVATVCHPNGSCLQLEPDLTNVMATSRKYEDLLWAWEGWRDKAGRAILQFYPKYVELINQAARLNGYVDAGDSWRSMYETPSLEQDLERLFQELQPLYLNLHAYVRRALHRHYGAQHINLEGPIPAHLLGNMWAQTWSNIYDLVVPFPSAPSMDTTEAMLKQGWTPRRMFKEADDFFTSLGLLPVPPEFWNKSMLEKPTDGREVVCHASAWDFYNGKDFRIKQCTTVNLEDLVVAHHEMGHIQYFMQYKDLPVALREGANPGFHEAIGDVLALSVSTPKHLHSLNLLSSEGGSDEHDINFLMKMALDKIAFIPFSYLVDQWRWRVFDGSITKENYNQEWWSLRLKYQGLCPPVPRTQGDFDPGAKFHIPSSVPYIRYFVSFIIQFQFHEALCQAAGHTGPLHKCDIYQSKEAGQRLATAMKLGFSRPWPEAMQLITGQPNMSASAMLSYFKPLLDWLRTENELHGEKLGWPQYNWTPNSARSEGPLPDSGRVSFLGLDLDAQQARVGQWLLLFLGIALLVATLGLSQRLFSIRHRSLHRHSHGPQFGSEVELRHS", "assay": "Inhibition of Angiotensin I Converting Enzyme (ACE), HHL substrate, hippuric acid colorimetry (modified Cushman method)", "assay_type": "biochemical", "conditions": "37°C for one hour, pH 8.3, read-out: Inhibitory Activity on ACE (%); for inhibition at 1 µM: Concentration 1 μM; for inhibition at 10 µM: Concentration 10 μM", "description": "Inhibitions of Angiotensin I Converting Enzyme (ACE) by the Compounds of this Invention. The experiment was conducted in accordance with a modification of the method described by Cushman et al. [Biochemical Pharmacology, Vol. 20, 1637 (1971)]. That is, using hippuryl-L-histidyl-L-leucine (HHL) as the substrate, the ACE inhibitory activity was determined in terms of percent inhibition of the amount of hippuric acid produced by ACE when the present compound was added. A solution of the compound of the present invention dissolved in a 0.02 to 0.5% dimethyl sulfoxide-1 00 mM potassium phosphate buffer solution (pH 8.3, containing 300 mM sodium chloride) was added to 100 µl of ACE (protein concentration, 20 mg/ml) and 100 µl of -1.25 mM HHL. In this experiment, a potassium phosphate buffer solution containing dimethyl sulfoxide at a concentration equal to that of the test solution was used as a control. After incubating the solution at 37°C for one hour, 150 µl of 1 N hydrochloric acid was added to the solution to terminate the reaction. After 1 ml of ethyl acetate was added, the solution was centrifuged at 3000 r.p.m. for 10 minutes. A 0.5 ml aliquot was separated from the ethyl acetate layer and dried at a temperature below 50°C under nitrogen gas streams. The residue was mixed with 5 ml of 1 M aqueous sodium chloride and the mixture was subjected to colorimetry at a wavelength of 228 nm."}}, "note": "Counter-ions that a name gives are not always drawn."}
{"smiles": "CCOC(=O)C(CCc1ccccc1)N[C@@H](C)C(=O)N(CC(=O)O)C1CCCC1.Cl", "note": "(stereo partly drawn) [Example 1, N-(1-ethoxycarbonyl-3-phenylpropyl)-L-alanyl-N-cyclopentylglycine hydrochloride]", "values": [{"measurement": "Percent Inhibition (%) against Hypertensive Reaction by Angiotensin I After 20 min.", "setting": "[1]", "result": 92, "unit": "%"}, {"measurement": "Percent Inhibition (%) against Hypertensive Reaction by Angiotensin I After 60 min.", "setting": "[1]", "result": 82, "unit": "%"}, {"measurement": "Percent Inhibition (%) against Hypertensive Reaction by Angiotensin I After 120 min.", "setting": "[1]", "result": 82, "unit": "%"}, {"measurement": "inhibition at 1 µM", "setting": "[2]", "result": 84, "unit": "%"}, {"measurement": "inhibition at 10 µM", "setting": "[2]", "result": 96, "unit": "%"}]}
{"smiles": "CCOC(=O)C(CCc1ccccc1)N[C@@H](C)C(=O)N(CC(=O)O)C1CCCCC1.Cl", "note": "(stereo partly drawn) [Example 2, N-(1-ethoxycarbonyl-3-phenylpropyl)-L-alanyl-N-cyclohexylglycine hydrochloride]", "values": [{"measurement": "Percent Inhibition (%) against Hypertensive Reaction by Angiotensin I After 20 min.", "setting": "[1]", "result": 82, "unit": "%"}, {"measurement": "Percent Inhibition (%) against Hypertensive Reaction by Angiotensin I After 60 min.", "setting": "[1]", "result": 82, "unit": "%"}, {"measurement": "Percent Inhibition (%) against Hypertensive Reaction by Angiotensin I After 120 min.", "setting": "[1]", "result": 77, "unit": "%"}, {"measurement": "inhibition at 1 µM", "setting": "[2]", "result": 64, "unit": "%"}, {"measurement": "inhibition at 10 µM", "setting": "[2]", "result": 90, "unit": "%"}]}
{"smiles": "CCCCOC(=O)C(CCc1ccccc1)N[C@@H](C)C(=O)N(CC(=O)O)C1CCCCCC1", "note": "(stereo partly drawn) [Example 7, N-(1-butoxycarbonyl-3-phenylpropyl)-L-alanyl-N-cycloheptylglycine hydrochloride]", "values": [{"measurement": "inhibition at 1 µM", "setting": "[2]", "result": 88, "unit": "%"}, {"measurement": "inhibition at 10 µM", "setting": "[2]", "result": 98, "unit": "%"}]}
{"smiles": "CCCCOC(=O)[C@H](CCc1ccccc1)N[C@@H](C)C(=O)N(CC(=O)O)C1CCCC1.Cl", "note": "[Example 12, N-[1-(S)-butoxycarbonyl-3-phenylpropyl]-L-alanyl-N-cyclopentylglycine hydrochloride]", "values": [{"measurement": "Percent Inhibition (%) against Hypertensive Reaction by Angiotensin I After 20 min.", "setting": "[1]", "result": 95, "unit": "%"}, {"measurement": "Percent Inhibition (%) against Hypertensive Reaction by Angiotensin I After 60 min.", "setting": "[1]", "result": 85, "unit": "%"}, {"measurement": "Percent Inhibition (%) against Hypertensive Reaction by Angiotensin I After 120 min.", "setting": "[1]", "result": 76, "unit": "%"}]}
{"smiles": "C[C@H](NC(CCc1ccccc1)C(=O)O)C(=O)N(CC(=O)O)C1CCCC1", "note": "(stereo partly drawn) [Example 13, N-(1-carboxy-3-phenylpropyl)-L-alanyl-N-cyclopentylglycine]", "values": [{"measurement": "Percent Inhibition (%) against Hypertensive Reaction by Angiotensin I After 20 min.", "setting": "[1]", "result": 58, "unit": "%"}, {"measurement": "Percent Inhibition (%) against Hypertensive Reaction by Angiotensin I After 60 min.", "setting": "[1]", "result": 64, "unit": "%"}, {"measurement": "Percent Inhibition (%) against Hypertensive Reaction by Angiotensin I After 120 min.", "setting": "[1]", "result": 62, "unit": "%"}, {"measurement": "inhibition at 1 µM", "setting": "[2]", "result": 93, "unit": "%"}, {"measurement": "inhibition at 10 µM", "setting": "[2]", "result": 100, "unit": "%"}]}
{"smiles": "CCOC(=O)C(CCc1ccccc1)NC(C)C(=O)N(CC(=O)O)C1CC2CCC1C2", "note": "[Example 17, N-[1-(2)-ethoxycarbonyl-3-phenylpropyl]-L-alanyl-N-(2-exonorbornyl)glycine hydrobromide]", "values": [{"measurement": "inhibition at 1 µM", "setting": "[2]", "result": 78, "unit": "%"}, {"measurement": "inhibition at 10 µM", "setting": "[2]", "result": 99, "unit": "%"}]}
{"smiles": "CCOC(=O)C(CCc1ccccc1)N[C@@H](C)C(=O)N(CC(=O)O)C1C2CC3CC(C2)CC1C3", "note": "(stereo partly drawn) [Example 19, N-(1-ethoxycarbonyl-3-phenylpropyl)-L-alanyl-N-(2-adamantyl)glycine hydrobromide]", "values": [{"measurement": "inhibition at 1 µM", "setting": "[2]", "result": 73, "unit": "%"}, {"measurement": "inhibition at 10 µM", "setting": "[2]", "result": 93, "unit": "%"}]}
